Measured values from patent publication US12298308B2, “Neoadjuvant chemotherapy induces breast cancer metastasis through a TMEM-mediated mechanism” (Albert Einstein College of Medicine, priority 2017, dated 2025).

Assays:
TMEM = TMEM score by triple-stain immunohistochemistry in mouse breast tumors; assay type: in vivo
Excerpt: (§1) This hypothesis was investigated in the following breast carcinoma models: (i) transgenic MMTV-PyMT mice bearing spontaneous breast tumors, (ii) FVB mice transplanted orthotopically with tumors from MMTV-PyMT donors, and (iii) two patient-derived xenografts (PDX), HT17 and HT33, developed previously in our laboratory (31). […] Treatment of all groups began at the early carcinoma stage (tumor size of ˜0.3 cm) when there is minimal or absent necrosis. It was decided to work with the early-stage PyMT mouse mammary carcinoma model because it more accurately reflects clinically relevant scenarios where most women present with small tumors of <2 cm (32).
(§2) Drug Administration. The following drugs were administered in mice: Paclitaxel was given at 10 mg/Kg i.v every 5 days for 2 weeks; Doxorubicin was given at 5 mg/Kg i.v. every 5 days for 2 weeks; Cyclophosphamide was given at 120 mg/Kg i.p. only once; Rebastinib was given at 10 mg/Kg per os, every 3-4 days for 4 weeks.
Animals and Animal Procedures. MMTV-PyMT mice were bred in-house at the Albert Einstein College of Medicine (AECOM). Generation of MMTV-PyMT Mena^−/− has been described previously (28). CFP- or Dendra2-labeled mammary carcinoma cells were generated on the FVB background by co-injection of Tg(MMTV-iCRE)1jwp together with Tg(PCAG-loxp-CATstop-loxp-CFP) or Tg(loxP-stop-loxP-PDendra2)jwp plasmids, respectively, by conventional methods in the Albert Einstein Transgenic Mouse Facility. All syngeneic transplantation models were generated through orthotopic transplantation of 1 mm×1 mm tumor chunks, using tumors of 1 cm-diameter from 12-16-week old MMTV-PyMT mena−/− or mena+/+ donor mice into 5-6 week-old FVB recipients. Tumor chunks were implanted on the fourth mammary pad on the left side. The generation of the ER^− HT17 and ER^+ HT33 patient-derived xenografts has been described previously (31). Animal handling and associated procedures were approved by the Institutional Animal Care and Use Committee (IACUC). Additional information is detailed in Supplementary Methods.
Histology and TMEM Immunohistochemistry. Breast tumors and lungs were isolated, rinsed in PBS, fixed in 10% neutral buffered formalin for 48 hours, dehydrated and embedded in paraffin. Sections (5 μm) were stained with H & E or TMEM triple-stain immunohistochemistry, as previously described (3).

Mena^INV = Mena^INV protein expression by immunofluorescence in mouse tumors; assay type: in vivo; conditions: PyMT-spontaneous and HT17-xenograft models; p<0.0001
Excerpt: To test this hypothesis, qRT-PCR analysis was first performed for total Mena (panMena), Mena11a and Mena^INV on formalin-fixed paraffin-embedded (FFPE) tumors from all mouse models. […] As shown in the specific Mena^INV IF, the pattern of Mena^INV expression in PyMT mice was heterogeneous (FIG. 4F), consistent with previous observations (40). […] In addition, there was an inverse correlation for the anti-metastatic Mena11a (p<0.01, […]).
Immunofluorescence. Slides were deparaffinized by melting at 60° C. in an oven equipped with a fan for 20 minutes, followed by 2× xylene treatment for 20 minutes. Slides were rehydrated and antigen retrieval was done in 1 mM EDTA (pH 8.0) or 1× citrate buffer (pH 6.0) (Diagnostic BioSystems) at 97° C. for 20 minutes in a conventional steamer. Endogenous peroxidase was blocked by using 0.3% hydrogen peroxide in water, followed by incubation of slides in a blocking buffer solution (10% FBS, 1% BSA, 0.0025% fish skin gelatin in 0.05% PBST) for 60 minutes at room temperature. […]

breast cancer = conditions: addition of paclitaxel into preoperative NAC regimen; cited from earlier work
breast tumors = experiment: Tumor growth in mouse breast carcinoma models; assay type: in vivo; conditions: 10 mg/Kg paclitaxel every five days, three times; vs non-treated controls
Excerpt: as §1, with “Herein, the possibility was examined that neoadjuvant paclitaxel promotes TMEM assembly and cancer cell dissemination and metastasis. This” for “This”, “(32). At the end of treatment all tumors were histologically classified as invasive carcinomas.” for “(32).”
as §2
Animals and Animal Procedures. MMTV-PyMT mice were bred in-house at the Albert Einstein College of Medicine (AECOM). Generation of MMTV-PyMT Mena^−/− has been described previously (28). […]

circulating tumor cells = experiment: Circulating tumor cells per mL of blood; assay type: in vivo, mouse
Experimental: as §2
Circulating Tumor Cells. Mice were anesthetized with 3.5-4.5% isoflurane, and blood was taken from the right ventricle by heart puncture, using 25G needles coated with heparin. Erythrocytes were lysed, using 10 ml of 1×RBC lysis buffer (multi-species, eBioscience). Cancer cells were quantified, as previously described (31, 60).

[1] = single agent vs vehicle, PyMT-transplantation and HT17 xenograft

CC(=O)O[C@H]1C(=O)[C@@]2(C)[C@H]([C@H](OC(=O)c3ccccc3)[C@]3(O)C[C@H](OC(=O)[C@H](O)[C@@H](NC(=O)c4ccccc4)c4ccccc4)C(C)=C1C3(C)C)[C@]1(OC(C)=O)CO[C@@H]1C[C@@H]2O [paclitaxel]
TMEM score, fold higher compared to non-treated controls (TMEM; all experimental models tested, 10 mg/Kg every five days, three times, p<0.001): 2- to 3 fold | overall TMEM score (TMEM assembly) (TMEM; [1]): significant increases | Mena^INV expression at the protein level (Mena^INV): increased expression | overall survival (breast cancer): does not improve | rate of pathologic complete response (pCR) (breast cancer): significantly increases | tumor growth (breast tumors): delayed tumor growth | number of CTCs in the blood (circulating tumor cells; Mena^-/- PyMT-CFP transplants): failed to boost | increase in circulating tumor cells (CTCs) (circulating tumor cells; all experimental models examined, p<0.05): at least 2 fold | number of CTCs (TMEM activity) (circulating tumor cells; [1]): significant increases
